Test system: human corpus cavernosum tissue
Details: doses of 10 μM and 30 μM; compared with equimolar dose of dipyridamole; tissue contracted with phenylephrine 7×10^−7 M; 0% = phenylephrine contraction, −100% = tone after papaverine 10^−4 M; FIG. 40
Protocol: The tissue was maintained in a chilled Krebs-bicarbonate solution prior to assay. The tissue was cut into strips of 0.3×0.3×1 cm and suspended in organ chambers for isometric tension measurement. Tissues were incrementally stretched until optimal isometric tension for contraction was obtained. […] At the end of the experiment papaverine (10^−4 M) is added to obtain maximal relaxation. […] Data are expressed as the percent loss in tone from the phenylephrine-induced contraction (0% =phenylephrine contraction; −100%=tone after the administration of papaverine).

Q: How did the “relaxation of the phenylephrine-induced contraction (percent loss in tone from the phenylephrine-induced contraction)” value turn out when `CC(C)(CC(=O)OCCN(CCOC(=O)CC(C)(C)SN=O)c1nc(N2CCCCC2)c2nc(N(CCOC(=O)CC(C)(C)SN=O)CCOC(=O)CC(C)(C)SN=O)nc(N3CCCCC3)c2n1)SN=O` [Example 1, 2.6-bis(diethyl(3-methyl-3(nitrosothiol)butyric acid ester)amino)-4.8-dipipendinopyrimido-[5,4d]-pyrimidine] was run?
A: more efficacious
